Laboratory results as given in patent US12583866B2, “Pyrido[2,3-b][1,4]oxazines or tetrahydropyrido[2,3-b][1,4]oxazepines as IAP antagonists” (BEIGENE, LTD., priority 2020, dated 2026).

Tests used:
[1] = molecular target: T1, recombinant human XIAP-BIR3 protein (Homo sapiens, UniProt P98170); experiment: Recombinant human XIAP-BIR3 biochemical assay (HTRF, peptide displacement); conditions: 3.7 nM XIAP-BIR3, 7.6 nM AbuRPF-K(5-Fam)-NH2 peptide, read-out: Protein binding IC50 (nM) XIAP
T1 construct: recombinant human XIAP-BIR3 protein; purchased Reaction biology APT-11-374
T1 sequence (P98170 241-356 limits assumed): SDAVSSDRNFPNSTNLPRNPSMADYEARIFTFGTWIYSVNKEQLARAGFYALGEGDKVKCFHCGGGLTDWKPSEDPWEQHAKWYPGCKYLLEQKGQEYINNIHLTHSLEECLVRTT
Summary of the method: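 3.7 nM His-tagged XIAP-BIR3 was preincubated 1 h RT with compound (top 10 µM, 4-fold, 10 points) in 20 mM HEPES pH 7.5, 50 mM NaCl, 0.005% Tween-20, 1 mM DTT. 7.6 nM AbuRPF-K(5-Fam)-NH2 peptide was then added, followed by anti-6His Tb cryptate, 1 h each. HTRF 520/490 nm ratio; four-parameter logistic IC50.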

[2] = molecular target: T2, recombinant human cIAP2-BIR3 protein (Homo sapiens, UniProt Q13489); experiment: Recombinant human c-IAP2-BIR3 biochemical assay (HTRF, peptide displacement); conditions: 3.7 nM cIAP2-BIR3, 3.7 nM AbuRPF-K(5-Fam)-NH2 peptide, read-out: Protein binding IC50 (nM) c-IAP2
T2 construct: recombinant human cIAP2-BIR3 protein; purchased Reaction biology APT-11-372
T2 sequence (Q13489 238-349 limits assumed): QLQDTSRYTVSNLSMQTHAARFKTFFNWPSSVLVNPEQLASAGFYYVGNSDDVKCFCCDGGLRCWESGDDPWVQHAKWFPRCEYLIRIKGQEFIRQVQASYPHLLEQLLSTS
Summary of the method: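 3.7 nM protein pre-incubated 1 h at room temperature with compounds (top 10 uM, 4-fold, 10 points) in 20 mM HEPES pH 7.5, 50 mM NaCl, 0.005% Tween-20, 1 mM DTT. Then 3.7 nM AbuRPF-K(5-Fam)-NH2 for 1 h, then anti-6His Tb cryptate 1 h. IC50 from 520/490 nm HTRF ratio, four-parameter logistic fit.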

[3] = molecular target: T3, recombinant human cIAP1-BIR3 protein (Homo sapiens, UniProt Q13490); experiment: Recombinant human c-IAP1-BIR3 biochemical assay (HTRF, peptide displacement); conditions: 1.2 nM cIAP1-BIR3, 3 nM AbuRPF-K(5-Fam)-NH2 peptide, read-out: Protein binding IC50 (nM) c-IAP1
T3 construct: recombinant human cIAP1-BIR3 protein; purchased Reaction biology APT-11-370
T3 sequence (Q13490 253-363 limits assumed): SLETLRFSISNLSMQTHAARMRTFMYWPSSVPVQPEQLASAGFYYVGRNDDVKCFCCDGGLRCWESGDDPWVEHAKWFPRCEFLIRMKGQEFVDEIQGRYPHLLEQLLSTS
Summary of the method: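 1.2 nM cIAP1-BIR3 preincubated 1 h at room temperature with compound (10 points, 4-fold, top 10 uM) in 20 mM HEPES pH 7.5, 50 mM NaCl, 1 mM DTT; 3 nM AbuRPF-K(5-Fam)-NH2 then added for 1 h, then anti-6His Tb cryptate for 1 h. 520/490 nm ratio; IC50 by four-parameter logistic fit.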

Row | IC50 [1] [nM] | IC50 [2] [nM] | IC50 [3] [nM] | Structure (SMILES)
1 | 3.7 | 0.37 | 0.16 | CC(C)NC(=O)c1nc2c(cc1Cc1ccc(F)cc1)N(C(=O)CN1C[C@@H](C)NC[C@@H]1CN1[C@H](C)COC[C@H]1C)[C@@H](C)CO2 [Example 69, (S)-1-(2-((2R,5R)-2-(((3R,5R)-3,5-dimethylmorpholino)methyl)-5-methylpiperazin-1-yl)acetyl)-7-(4-fluorobenzyl)-N-isopropyl-2-methyl-2,3-dihydro-1H-pyrido[2,3-b][1,4]oxazine-6-carboxamide]
2 | 14 | 0.93 | 0.44 | C[C@@H]1CN(CC(=O)N2c3cc(Cc4ccc(F)cc4)c(CO)nc3OC[C@@H]2C)[C@@H](CN2CCOCC23CC3)CN1 [Compound 50, 2-((2R,5R)-2-((7-oxa-4-azaspiro[2.5]octan-4-yl)methyl)-5-methylpiperazin-1-yl)-1-((S)-7-(4-fluorobenzyl)-6-(hydroxymethyl)-2-methyl-2,3-dihydro-1H-pyrido[2,3-b][1,4]oxazin-1-yl)ethan-1-one]
3 | 8.1 | 0.73 | 0.33 | CC(C)OC[C@@H]1COCCN1C[C@H]1CN[C@H](C)CN1CC(=O)N1c2cc(Cc3ccc(F)cc3)c(C(N)=O)nc2OC[C@@H]1C [Example 62, (S)-7-(4-fluorobenzyl)-1-(2-((2R,5R)-2-(((S)-3-(isopropoxymethyl)morpholino)methyl)-5-methylpiperazin-1-yl)acetyl)-2-methyl-2,3-dihydro-1H-pyrido[2,3-b][1,4]oxazine-6-carboxamide]
4 | 3.8 | 0.34 | 0.22 | C[C@@H]1CN(CC(=O)N2c3cc(Cc4ccc(F)cc4)c(OCCN4CCOCC4)nc3OC[C@@H]2C)[C@@H](CN2[C@H](C)COC[C@H]2C)CN1 [Compound 90]
5 | 43 | 0.66 | 0.29 | CCOC[C@H]1COc2ncc(Cc3ccc(F)cc3)cc2N1C(=O)CN1C[C@@H](C)NC[C@@H]1CN1CCOC[C@H]1C [Compound 37, 1-((S)-2-(ethoxymethyl)-7-(4-fluorobenzyl)-2,3-dihydro-1H-pyrido[2,3-b][1,4]oxazin-1-yl)-2-((2R,5R)-5-methyl-2-(((R)-3-methylmorpholino)methyl)piperazin-1-yl)ethan-1-one]
6 | 13.9 | 0.7 | 0.25 | CCNc1nc2c(cc1Cc1ccc(F)cc1)N(C(=O)CN1C[C@@H](C)NC[C@@H]1CN1[C@H](C)COC[C@H]1C)[C@@H](C)CO2 [Compound 111, 2-((2R,5R)-2-(((3R,5R)-3,5-dimethylmorpholino)methyl)-5-methylpiperazin-1-yl)-1-((S)-6-(ethylamino)-7-(4-fluorobenzyl)-2-methyl-2,3-dihydro-1H-pyrido[2,3-b][1,4]oxazin-1-yl)ethan-1-one]
7 | 4.9 | 0.3 | 0.22 | C[C@@H]1CN(CC(=O)N2c3cc(Cc4ccc(F)cc4)c(C(=O)N(C)C)nc3OC[C@@H]2C)[C@@H](CN2[C@H](C)COC[C@H]2C)CN1 [Example 80, (S)-1-(2-((2R,5R)-2-(((3R,5R)-3,5-dimethylmorpholino)methyl)-5-methylpiperazin-1-yl)acetyl)-7-(4-fluorobenzyl)-N,N,2-trimethyl-2,3-dihydro-1H-pyrido[2,3-b][1,4]oxazine-6-carboxamide]
8 | 45 | 2.9 | 1 | C[C@@H]1CN(CC(=O)N2CCOc3nc(CO)c(Cc4ccc(F)cc4)cc32)[C@@H](CN2CCOC[C@H]2C)CN1 [Compound 8, 1-(7-(4-fluorobenzyl)-6-(hydroxymethyl)-2,3-dihydro-1H-pyrido[2,3-b][1,4]oxazin-1-yl)-2-((2R,5R)-5-methyl-2-(((R)-3-methylmorpholino)methyl)piperazin-1-yl)ethan-1-one]
9 | 2.5 | 0.37 | 0.19 | C[C@@H]1CN(CC(=O)N2c3cc(Cc4ccc(F)cc4)c(C(=O)N4CC[C@@H](F)C4)nc3OC[C@@H]2C)[C@@H](CN2[C@H](C)COC[C@H]2C)CN1 [Compound 101, 2-((2R,5R)-2-(((3R,5R)-3,5-dimethylmorpholino)methyl)-5-methylpiperazin-1-yl)-1-((S)-7-(4-fluorobenzyl)-6-((R)-3-fluoropyrrolidine-1-carbonyl)-2-methyl-2,3-dihydro-1H-pyrido[2,3-b][1,4]oxazin-1-yl)ethan-1-one]
10 | 8.4 | 0.85 | 0.34 | C[C@@H]1CN(CC(=O)N2CCOc3ncc(Cc4ccc(F)cc4)cc32)[C@@H](CN2[C@H](C)COC[C@H]2C)CN1 [Compound 16, 2-((2R,5R)-2-(((3R,5R)-3,5-dimethylmorpholino)methyl)-5-methylpiperazin-1-yl)-1-(7-(4-fluorobenzyl)-2,3-dihydro-1H-pyrido[2,3-b][1,4]oxazin-1-yl)ethan-1-one]
11 | 16.9 | 0.94 | 0.33 | C[C@@H]1CN(CC(=O)N2c3cc(Cc4ccc(F)cc4)c(N4CCOCC4)nc3OC[C@@H]2C)[C@@H](CN2[C@H](C)COC[C@H]2C)CN1 [Compound 106, 2-((2R,5R)-2-(((3R,5R)-3,5-dimethylmorpholino)methyl)-5-methylpiperazin-1-yl)-1-((S)-7-(4-fluorobenzyl)-2-methyl-6-morpholino-2,3-dihydro-1H-pyrido[2,3-b][1,4]oxazin-1-yl)ethan-1-one]
12 | 122 | 9.8 | 3.6 | C[C@@H]1CN(CC(=O)N2CCOc3ncc(Cc4ccc(F)cc4)cc32)[C@@H](CN2C[C@H]3C[C@@H]2CO3)CN1 [Compound 14]
13 | 12 | 1.2 | 0.46 | CCOC[C@@H]1COCCN1C[C@H]1CN[C@H](C)CN1CC(=O)N1c2cc(Cc3ccc(F)cc3)c(CO)nc2OC[C@@H]1C [Compound 53]
14 | 23 | 0.27 | 0.23 | C[C@@H]1CN(CC(=O)N2c3cc(Cc4ccc(F)cc4)cnc3OC[C@@H]2C2CCCCC2)[C@@H](CN2[C@H](C)COC[C@H]2C)CN1 [Compound 43, 1-((S)-2-cyclohexyl-7-(4-fluorobenzyl)-2,3-dihydro-1H-pyrido[2,3-b][1,4]oxazin-1-yl)-2-((2R,5R)-2-(((3R,5R)-3,5-dimethylmorpholino)methyl)-5-methylpiperazin-1-yl)ethan-1-one]
15 | 3.97 | 0.21 | 0.13 | C[C@@H]1CN(CC(=O)N2c3cc(Cc4ccc(F)cc4)cnc3OC[C@@H]2C)[C@@H](CN2[C@H](C)COC[C@H]2C)CN1 [Compound 22]
16 | 10.3 | 0.45 | 0.24 | C[C@@H]1CN(CC(=O)N2c3cc(Cc4ccc(F)cc4)c(NCCO)nc3OC[C@@H]2C)[C@@H](CN2[C@H](C)COC[C@H]2C)CN1 [Compound 109]
17 | 5.8 | 0.36 | 0.25 | C[C@@H]1CN(CC(=O)N2c3cc(Cc4ccc(F)cc4)c(C(N)=O)nc3OC[C@@H]2C)[C@@H](CN2[C@H](C)COC[C@H]2C)CN1 [Compound 32, (S)-1-(2-((2R,5R)-2-(((3R,5R)-3,5-dimethylmorpholino)methyl)-5-methylpiperazin-1-yl)acetyl)-7-(4-fluorobenzyl)-2-methyl-2,3-dihydro-1H-pyrido[2,3-b][1,4]oxazine-6-carboxamide]
18 | 6.8 | 0.39 | 0.24 | C[C@@H]1CN(CC(=O)N2c3cc(Cc4ccc(F)cc4)c(C(=O)NC(C)(C)C)nc3OC[C@@H]2C)[C@@H](CN2[C@H](C)COC[C@H]2C)CN1 [Compound 120]
19 | 8.2 | 0.29 | 0.13 | C[C@@H]1CN(CC(=O)N2c3cc(Cc4ccc(F)cc4)c(C(=O)NCC4CCN(C)CC4)nc3OC[C@@H]2C)[C@@H](CN2[C@H](C)COC[C@H]2C)CN1 [Compound 98, (S)-1-(2-((2R,5R)-2-(((3R,5R)-3,5-dimethylmorpholino)methyl)-5-methylpiperazin-1-yl)acetyl)-7-(4-fluorobenzyl)-2-methyl-N-((1-methylpiperidin-4-yl)methyl)-2,3-dihydro-1H-pyrido[2,3-b][1,4]oxazine-6-carb oxamide]
20 | 196 | 6.9 | 3.4 | C[C@@H]1CN(CC(=O)N2CCOc3ncc(Cc4ccc(F)cc4)cc32)[C@@H](CN2C(=O)OC[C@H]2C(F)F)CN1 [Compound 15, (S)-4-(difluoromethyl)-3-(((2R,5R)-1-(2-(7-(4-fluorobenzyl)-2,3-dihydro-1H-pyrido[2,3-b][1,4]oxazin-1-yl)-2-oxoethyl)-5-methylpiperazin-2-yl)methyl)oxazolidin-2-one]
